Assay results from PubChem BioAssay AID2305 (GlaxoSmithKline (GSK), 2010).

Tested on: P. falciparum 3D7 growth, pLDH absorbance
Experiment: blood-stage malaria parasite growth potency – strain 3D7, dose response (AID 2305)

SMILES	IC50
O=S(=O)(NCCN1CCCC1)c1ccc(-c2cccc(CNCc3ccc(F)cc3)c2)cc1F	790 nM
CN(C)CCNCc1ccc(-c2ccc(-c3nc4ccc(F)cc4[nH]3)cc2)cc1	470 nM
CC[C@H]1CN2CC[C@@H]1C[C@H]2[C@H](O)c1ccnc2ccc(OC)cc12	230 nM
c1ccc(Nc2nc(-c3ccccn3)cs2)nc1	1150 nM
COc1cc([N+](=O)[O-])ccc1NC(=O)c1cc(Cl)ccc1O	1140 nM
Cc1nc2c(-n3cc(Cn4ccnc4)c4ccccc43)ncnc2n1-c1ccc(Cl)cc1Cl	990 nM
CN1CCCN(Cc2cccc(-c3cccc(NC(=O)c4cccc(C#N)c4)c3)c2)CC1	820 nM
CN1CCC(Oc2ccc(CN3CC[C@H](NC(=O)c4ccc(Cl)c(F)c4)C3)c3ccccc23)C1 (stereo partly specified)	740 nM
COc1ccc(CNCC(C)(C)c2nc(-c3ccc(Cl)c(O)c3)c(-c3ccncc3)[nH]2)cc1	360 nM
Cc1noc(C)c1-c1cccc(CNCc2ccc(-c3ccc(-c4nc5ccc(F)cc5[nH]4)s3)cc2)c1	420 nM
CNC(=O)Cc1ccc(C(=O)Nc2cccc(-c3csc(-c4nc5ccccc5[nH]4)c3)c2)cc1	270 nM
CCCCCn1c(Sc2ccc(C#N)c([N+](=O)[O-])c2)nnc1-c1cc(OC)cc(OC)c1	960 nM
CN1CCN(CCCN(Cc2ccc(-c3cccc(CNCc4ccc5c(c4)OCO5)c3)cc2)C(=O)CCC2CCCC2)CC1	1010 nM
COc1ccc(Nc2nccc(-c3c(-c4cccc(NC(=O)c5c(F)cccc5F)c4)nn4ccccc34)n2)cc1Cl	280 nM
Cc1ccc2c(NN=Cc3ccccc3[N+](=O)[O-])cc(C)nc2c1	420 nM
O=c1cc(NCCCNCc2ccc(Cl)c(Cl)c2)[nH]c2cc(Cl)ccc12	920 nM
CC[C@H]1CN2CC[C@H]1C[C@@H]2[C@H](O)c1ccnc2ccc(O)cc12	1040 nM
CC(=O)Nc1nc(C(=O)Nc2cccc(-c3ccc(-c4nc5c(C)cccc5[nH]4)cc3)c2)cs1	230 nM
COc1ccc2nccc(NN=Cc3ccc([N+](=O)[O-])cc3)c2c1	710 nM
O=C(Nc1ccc(-n2ccc(C(F)(F)F)n2)cc1)c1cccs1	1070 nM
COc1cc(NCCCNC(=O)c2ccc(Cl)c(Cl)c2)nc2ccccc12	140 nM
CCCCCN1CCCN(Cc2cccc(NC(=O)c3ccc(-c4ccccc4)cc3)c2)CC1	700 nM
COc1ccc(NC(=O)CCNc2cc(C)nc(Nc3ccccc3)n2)cc1	1100 nM
CCN(CC)CCN(Cc1ccc(-c2ccc(C(F)(F)F)cc2)cc1)C(=O)CN1C(CCc2cccc(F)c2F)=NS(=O)(=O)c2ccccc21	240 nM

SMILES	IC50
O=C(/C=C/c1ccc(Cl)c(Cl)c1)NCCCCCN1CCC(c2c[nH]c3ccccc23)CC1	780 nM
CCN(CC)CCCOC(=O)c1ccc2c(c1)-c1ccc(C(=O)OCCCN(CC)CC)c3cccc-2c13	930 nM
c1ccc(CCNCc2ccc(-c3cccc(-c4nc5ccccc5[nH]4)c3)cc2)nc1	620 nM
COc1ccc(Nc2nccc(NCCNC(=O)Nc3ccccc3F)n2)cc1	1320 nM
COCCCNC(=S)NN=C(C)c1ccccn1	300 nM
CCn1ncc2c(N3CCCC3=O)cc(C(=O)N[C@@H](Cc3ccccc3)[C@H](O)CNC(C)(C)c3cccc(OC)c3)cc21	110 nM
CCCCCn1c(Sc2ccc(C#N)c([N+](=O)[O-])c2)nnc1-c1cccc(Cl)c1	770 nM
COc1ccc(Br)cc1/C=C/C(=O)Nc1cccc(C2CCN(C)CC2)c1	520 nM
CCc1cccc(-n2c(=O)c3cccnc3n2CC(=O)NCc2ccccc2Cl)c1	740 nM
CN(C)C(=S)N=Nc1c(O)[nH]c2ccc(OC(F)(F)F)cc12	1020 nM
Cc1c(C)n(C2CCCCC2)c2ncnc(OC3CCN(CC(=O)N4CCCC4)CC3)c12	1450 nM
CN(C(=O)C(C)(C)Oc1ccc(Cl)cc1)C1CCN(CCCCCNC(=O)/C=C/c2ccc(Cl)c(Cl)c2)CC1	920 nM
Cc1nc(-c2cccc(NCc3ccccc3)c2)[nH]c1C	860 nM
CCCNC[C@@H](O)[C@H](Cc1ccccc1)NC(=O)c1cc2c3c(c1)c(CC)cn3CCS(=O)(=O)N2C	100 nM
Cc1cc(CN2CCC(N3CC(c4ccccc4)(c4ccccc4)OC3=O)C2)ccc1O (stereo unspecified)	780 nM
O=C1COc2ccc(S(=O)(=O)N3CCC[C@@H]3CCN3CCC(c4c[nH]c5cnccc45)CC3)cc2N1	860 nM
CC(C)(C)c1cc2cc(Nc3ccnc4cc(-c5nccs5)ccc34)ccc2[nH]1	440 nM
CN1CCCC1CCNCc1cccc(-c2cnc(N(C)C3CCCCC3)nc2)c1 (stereo unspecified)	850 nM
CCc1ccc(-n2c(=O)c3cccnc3n2CC(=O)NC2CCCC2)cc1	920 nM
Cc1nc(N)nc(N)c1CCCOc1ccccc1Br	420 nM
COc1ccc2ncc(Cl)c(NCC3(O)CCC(NCc4ccc5c(n4)NC(=O)CS5)CC3)c2n1 (stereo unspecified)	600 nM
Cc1ccc(-c2cc(C(=O)Nc3ccc(S(=O)(=O)N4CCOCC4)cc3)[nH]n2)c(O)c1C	920 nM
COc1ccc(C2(CNCC(O)c3cccc([N+](=O)[O-])c3)CCCC2)cc1OC (stereo unspecified)	890 nM
O=C(/C=C/c1ccc(Cl)c(Cl)c1)NCCCCCN1CCC(NC(=O)Nc2cccc(C(F)(F)F)c2)CC1	700 nM

SMILES	IC50
Cc1ccc(C(NC(=O)Cc2ccccc2)c2ccc3cccnc3c2O)cc1 (stereo unspecified)	620 nM
COC(=O)c1cccc(NC(=O)NCCNc2ccnc(Nc3ccc(F)cc3)n2)c1	840 nM
CCOc1ccc(CCC(=O)O)cc1OCC	1030 nM
CC(=O)Nc1ccc(CN2CCc3ccc(NS(=O)(=O)c4cccc(OCc5ccc(Cl)cc5)c4)cc3CC2)s1	910 nM
COc1ccc2nc(-c3cc(-c4ccc(NC(=O)CN5CCOCC5)cc4)cnc3N)[nH]c2c1	620 nM
COc1ccc(CCN2CCC(NCc3cccc(N(C)C)c3)CC2)cc1	1320 nM
CCc1ccc(CN(CCCOc2cccc(CC(=O)NCc3cnc[nH]3)c2)Cc2ccc(-n3ccnc3)cc2)cc1	980 nM
CC1CN(S(=O)(=O)c2ccc(NC(=O)c3cc(-c4ccccc4O)n[nH]3)cc2)CC(C)O1 (stereo unspecified)	830 nM
O=C(Nc1ccc(Br)cc1)c1cc(Br)ccc1NS(=O)(=O)c1cc(C(F)(F)F)cc(C(F)(F)F)c1	880 nM
OC(CNc1ccnc(Nc2cccc(Cl)c2)n1)c1ccccc1C(F)(F)F (stereo unspecified)	900 nM
CC[C@H]1CN2CC[C@H]1C[C@H]2[C@H](O)c1cc(-c2ccc(F)cc2C)nc2ccc(OC)cc12	160 nM
Cc1ccc(C)c(NC(=O)CC2C(=O)N(c3ccccc3)C(=S)N2Cc2ccco2)c1 (stereo unspecified)	570 nM
NC(N)=Nc1ccc(OCCCCCOc2ccc(N=C(N)N)c(Cl)c2)cc1Cl	860 nM
Fc1ccc2nccc(NN=CC=Cc3ccccc3)c2c1	680 nM
O=C(N[C@H]1CCN(CCc2ccc(O[C@H]3CCNC3)c(Cl)c2)C1)c1ccc(Cl)c(Cl)c1	890 nM
FC(F)(F)c1ccc2nc(-c3ccc(-c4cccc(CNCc5cnn(-c6ccccc6)n5)c4)cc3)[nH]c2c1	650 nM
CC(CN1CCN(C)CC1)C(=O)Nc1cccc(-c2cccc(-c3nc4ccc(F)cc4[nH]3)c2)c1 (stereo unspecified)	270 nM
COc1cc2c(cc1S(=O)(=O)c1ccc(NC(=O)c3cccc(C(F)(F)F)c3)cc1)CCN(C)CC2	1380 nM
COc1cc(Cc2cnc(N)nc2N)c2ccsc2c1OC	1070 nM
CCC(C)NS(=O)(=O)c1ccc2nc(Nc3ccc(C)c(Cl)c3)n(C(C)C(C)C)c2c1 (stereo unspecified)	380 nM
COc1cccc(CNC[C@@H](O)[C@H](Cc2ccccc2)NC(=O)c2cc(OC(C)C)cc(N3CCCCS3(=O)=O)c2)c1	730 nM
Cc1cc(C2CCN(CCCCNC(=O)c3ccc(-c4ccc(C(F)(F)F)cc4)cc3)CC2)c(C)cc1OCCOC1CCCCO1 (stereo unspecified)	790 nM
COc1cc2c(C3CCN(CC4CCC(NC(=O)/C=C/c5ccc(Cl)c(Cl)c5)CC4)CC3)c[nH]c2cn1 (stereo unspecified)	420 nM
O=S(=O)(Nc1cc2c(cc1O)CCN(C1CCC1)CC2)c1ccc(Oc2ccc(F)cc2)cc1	780 nM

SMILES	IC50
CN(C)CCNC(=O)c1ccc(-c2ccc3c(Nc4ccccc4)c(C(N)=O)cnc3c2)cc1	730 nM
CC(C)(C)c1cc([N+](=O)[O-])cc(C(=O)Nc2ccccc2C(F)(F)F)c1O	650 nM
CC(=O)Nc1ccc(C(=O)Nc2cccc(-c3ccc(-c4nc5ccccc5[nH]4)cc3)c2)cn1	210 nM
O=C(Nc1ccc(-c2ccc(-c3nc4ccccc4[nH]3)s2)cc1)c1ccncc1	790 nM
O=C(Nc1cccnc1)c1cc(-c2cccnc2)nc2ccc(Cl)cc12	1060 nM
CN1CCN(c2ccnc3cc4c(cc23)N(C(=O)Nc2ccc(-c3ccncc3)c3ccccc23)CC4)CC1	950 nM
CCc1ccccc1NC(=O)CN1CCN(c2ncnc3scc(-c4ccc(F)cc4)c23)CC1	700 nM
CNCC(C)(C)c1nc(-c2ccc(Cl)c(O)c2)c(-c2ccncc2)[nH]1	740 nM
CN(C)S(=O)(=O)c1ccc(N2C(=O)[C@@H]3[C@H](C2=O)[C@@]2(c4ccccc4)C(=O)[C@]3(c3ccccc3)C(c3ccccc3)=C2c2ccccc2)cc1	950 nM
COc1ccc2nccc([C@@H](O)CN3CCC(NCC(O)Cc4ccccc4)CC3)c2c1 (stereo partly specified)	670 nM
O=C(NCCCCN1CCN(c2cccc3c2CCCC3)CC1)c1ccc(NC(=O)c2ccc(Cl)cc2)cc1	450 nM
Cc1nc(-c2cccc(Nc3nccc(NCC(O)c4cccc(F)c4)n3)c2)cs1 (stereo unspecified)	700 nM
Cn1cc(CCNc2ccnc(N3CCC(c4ncc[nH]4)CC3)n2)c2ccccc21	1200 nM
CC(C)CCNC(=O)C1Cc2c([nH]c3ccc(Br)cc23)C2(CCN(CCc3ccccc3)CC2)N1 (stereo unspecified)	690 nM
CN1CCN(Cc2ccc(-c3ccc4c(Nc5ccc(Cl)cc5F)ccnc4c3)o2)CC1	150 nM
CCCCCCNCCOc1ccc(-c2nc(-c3ccccc3)c(-c3ccccc3)[nH]2)cc1	670 nM
O=C(C(=O)c1ccc(Nc2ccnc3cc(-c4ccccn4)ccc23)cc1)c1ccccc1	970 nM
Brc1ccc(Nc2nc(NCC3CCCO3)c3ccccc3n2)cc1 (stereo unspecified)	580 nM
O=C(/C=C/c1ccccc1Cl)Nc1ccc(Br)c(OCCN2CCCCC2)c1	170 nM
O=[N+]([O-])c1cccc(-c2ccc(C=NNc3cc(N4CCCC4)nc(N4CCCC4)n3)o2)c1	710 nM
N#Cc1c(Cl)cccc1Oc1ccc(S(=O)(=O)N2CCC(CN3CCC(c4c[nH]c5ccccc45)CC3)CC2)cc1	750 nM
CC(C)CN1C(=O)c2ccc(C(=O)Nc3nccs3)cc2C1=O	970 nM
CCn1c(-c2nonc2N)nc2c(C#CC(C)(C)O)ncc(OCCNCCc3ccc(OC)cc3)c21	960 nM
COc1ccc(NC(=O)c2ccc(-c3cc(NC(=O)c4ccnc(N5CCCC5)c4)ccc3C)s2)cc1N1CCN(C)CC1	250 nM
